Measured values as given in US20260125360A1, “HERBICIDAL IMIDAZOLE COMPOUNDS” (SYNGENTA CROP PROTECTION AG, priority 2022, published 2026).

Tests used:
Format in all cases: in vivo
Details in all cases: 250 g/ha, evaluated after 13 days
[1] = system: Amaranthus palmeri (AMAPA); test: Post-emergence herbicide glasshouse test
How it was run: (§1)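 Species sown in standard soil and sprayed 1 day (pre-emergence) or 8 days (post-emergence) after sowing, at 250 g/ha unless noted, in acetone/water (50:50) with 0.5% Tween 20. Glasshouse at 24/16 °C day/night, 14 h light, 65% humidity. Percentage damage scored after 13 days on a 1–5 scale (5=81–100%, 1=0–20%).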

[2] = system: Amaranthus retoflexus (AMARE); test: Post-emergence herbicide glasshouse test
How it was run: as §1

[3] = system: Echinochloa crus-galli (ECHCG); test: Post-emergence herbicide glasshouse test
How it was run: as §1

[4] = system: Ipomoea hederacea (IPOHE); test: Post-emergence herbicide glasshouse test
How it was run: as §1

[5] = system: Amaranthus palmeri (AMAPA); test: Pre-emergence herbicide glasshouse test
How it was run: as §1

[6] = system: Amaranthus retoflexus (AMARE); test: Pre-emergence herbicide glasshouse test
How it was run: as §1

[7] = system: Echinochloa crus-galli (ECHCG); test: Pre-emergence herbicide glasshouse test
How it was run: as §1

[8] = system: Ipomoea hederacea (IPOHE); test: Pre-emergence herbicide glasshouse test
How it was run: as §1

Row | SMILES | percentage damage caused to the plant, AMAPA (five-point scale) [1] | percentage damage caused to the plant, AMARE (five-point scale) [2] | percentage damage caused to the plant, ECHCG (five-point scale) [3] | percentage damage caused to the plant, IPOHE (five-point scale) [4] | percentage damage caused to the plant, AMAPA (five-point scale) [5] | percentage damage caused to the plant, AMARE (five-point scale) [6] | percentage damage caused to the plant, ECHCG (five-point scale) [7] | percentage damage caused to the plant, IPOHE (five-point scale) [8]
1 | CCn1ccc(Cn2cc(C(F)(F)F)nc2-c2ccc(Cl)nc2)n1 [Compound 1.063] | 5 (5=81-100%) | 5 (5=81-100%) | 1 (1=0-20%) | 3 (3=41-60%) | 5 (5=81-100%) | 5 (5=81-100%) | 1 (1=0-20%) | 5 (5=81-100%)
2 | Cc1cc(Cn2cc(C(F)(F)F)nc2-c2ccc(F)c(F)c2)no1 [Compound 1.192] | 5 (5=81-100%) | 5 (5=81-100%) | 5 (5=81-100%) | 5 (5=81-100%) | 5 (5=81-100%) | 5 (5=81-100%) | 5 (5=81-100%) | 5 (5=81-100%)
3 | Cc1nnc(Cn2cc(C(F)F)nc2-c2cnc(Cl)c(F)c2)s1 [Compound 1.016] | 1 (1=0-20%) | 1 (1=0-20%) | 1 (1=0-20%) | 1 (1=0-20%) | 4 (4=61-80%) | 5 (5=81-100%) | 1 (1=0-20%) | 1 (1=0-20%)
4 | Cc1cc(Cn2cc(C(F)F)nc2-c2cnc(Cl)c(F)c2)no1 [Compound 1.024] | 5 (5=81-100%) | 5 (5=81-100%) | 2 (2=21-40%) | 4 (4=61-80%) | 5 (5=81-100%) | 5 (5=81-100%) | 4 (4=61-80%) | 5 (5=81-100%)
5 | Cn1ccc(Cn2cc(C(F)(F)F)nc2-c2cnc(Cl)c(F)c2)n1 [Compound 1.026] | 4 (4=61-80%) | 4 (4=61-80%) | 3 (3=41-60%) | 4 (4=61-80%) | 5 (5=81-100%) | 5 (5=81-100%) | 4 (4=61-80%) | 5 (5=81-100%)
6 | Cn1cnc(Cn2cc(C(F)(F)F)nc2-c2ccc(Cl)nc2)n1 [Compound 1.087] | 5 (5=81-100%) | 5 (5=81-100%) | 5 (5=81-100%) | 5 (5=81-100%) | 5 (5=81-100%) | 5 (5=81-100%) | 5 (5=81-100%) | 5 (5=81-100%)
7 | Cn1nnc(Cn2cc(C(F)(F)F)nc2-c2ccc(Cl)nc2)c1C(F)F [Compound 1.070] | 4 (4=61-80%) | 4 (4=61-80%) | 1 (1=0-20%) | 4 (4=61-80%) | 5 (5=81-100%) | 5 (5=81-100%) | 1 (1=0-20%) | 4 (4=61-80%)
8 | Cn1ccc(Cn2cc(C(F)(F)F)nc2-c2cnc(F)c(Cl)c2)n1 [Compound 1.153] | 5 (5=81-100%) | 5 (5=81-100%) | 5 (5=81-100%) | 4 (4=61-80%) | 5 (5=81-100%) | 5 (5=81-100%) | 5 (5=81-100%) | 5 (5=81-100%)
9 | COCCc1noc(Cn2cc(C(F)(F)F)nc2-c2ccc(C(F)(F)F)cc2)n1 [Compound 1.011] | 1 (1=0-20%) | 1 (1=0-20%) | 1 (1=0-20%) | 1 (1=0-20%) | 1 (1=0-20%) | 1 (1=0-20%) | 1 (1=0-20%) | 1 (1=0-20%)
10 | Cn1cnc(Cn2cc(C(F)(F)F)nc2-c2ccc(S(C)(=O)=O)cc2)n1 [Compound 1.170] | 5 (5=81-100%) | 5 (5=81-100%) | 2 (2=21-40%) | 3 (3=41-60%) | 5 (5=81-100%) | 5 (5=81-100%) | 4 (4=61-80%) | 5 (5=81-100%)
11 | Cc1cc(Cn2cc(C(F)(F)F)nc2-c2ccc(F)c(F)c2)ns1 [Compound 1.162] | 5 (5=81-100%) | 5 (5=81-100%) | 5 (5=81-100%) | 4 (4=61-80%) | 5 (5=81-100%) | 5 (5=81-100%) | 5 (5=81-100%) | 3 (3=41-60%)
12 | Cn1nc(Cn2cc(C(F)(F)F)nc2-c2ccc(Cl)nc2)cc1Cl [Compound 1.084] | 4 (4=61-80%) | 4 (4=61-80%) | 1 (1=0-20%) | 4 (4=61-80%) | 5 (5=81-100%) | 5 (5=81-100%) | 3 (3=41-60%) | 5 (5=81-100%)
13 | Cn1nnc(Cn2cc(C(F)(F)F)nc2-c2ccc(Cl)nc2)n1 [Compound 1.109] | 5 (5=81-100%) | 5 (5=81-100%) | 1 (1=0-20%) | 5 (5=81-100%) | 5 (5=81-100%) | 5 (5=81-100%) | 5 (5=81-100%) | 5 (5=81-100%)
14 | Cc1nnc(Cn2cc(C(F)(F)F)nc2-c2ccc(Cl)nc2)s1 [Compound 1.065] | 5 (5=81-100%) | 5 (5=81-100%) | 1 (1=0-20%) | 1 (1=0-20%) | 5 (5=81-100%) | 5 (5=81-100%) | 1 (1=0-20%) | 5 (5=81-100%)
15 | FC(F)(F)c1cn(Cc2nc(C3CC3)no2)c(-c2ccc(Cl)nc2)n1 [Compound 1.138] | 1 (1=0-20%) | 1 (1=0-20%) | 1 (1=0-20%) | 2 (2=21-40%) | 3 (3=41-60%) | 3 (3=41-60%) | 1 (1=0-20%) | 2 (2=21-40%)
16 | FC(F)n1ccc(Cn2cc(C(F)(F)F)nc2-c2ccc(Cl)nc2)n1 [Compound 1.051] | 5 (5=81-100%) | 5 (5=81-100%) | 1 (1=0-20%) | 4 (4=61-80%) | 5 (5=81-100%) | 5 (5=81-100%) | 1 (1=0-20%) | 5 (5=81-100%)
